Data published in US11104690B2, “Indazole derivatives useful as inhibitors of diacylglyceride O-acyltransferase 2” (Merck Sharp & Dohme Corp., priority 2016, dated 2021).
pIC50: −log10 of the molar value.

Target: Human DGAT2 (Homo sapiens (Human), UniProt Q96PD7)
Experiment: DGAT2 Enzymatic Activity Assay (triolein formation, LC/MS/MS)
Type: biochemical
Settings: hDGAT2 Sf-9 membrane prep; 25 μM diolein, 10 μM oleoyl-CoA; room temperature
Summary of the method: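 Triolein product, measured by LC/MS/MS as a ratio to internal standard, gave % inhibition and 4-parameter IC50. Reaction: 25 μM diolein, 10 μM oleoyl-CoA, 10 ng/μL hDGAT2 Sf-9 membrane, 100 mM Tris.Cl pH 7.0, 20 mM MgCl2, 5% ethanol, room temperature.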

Human DGAT2, sequence (Q96PD7 whole entry): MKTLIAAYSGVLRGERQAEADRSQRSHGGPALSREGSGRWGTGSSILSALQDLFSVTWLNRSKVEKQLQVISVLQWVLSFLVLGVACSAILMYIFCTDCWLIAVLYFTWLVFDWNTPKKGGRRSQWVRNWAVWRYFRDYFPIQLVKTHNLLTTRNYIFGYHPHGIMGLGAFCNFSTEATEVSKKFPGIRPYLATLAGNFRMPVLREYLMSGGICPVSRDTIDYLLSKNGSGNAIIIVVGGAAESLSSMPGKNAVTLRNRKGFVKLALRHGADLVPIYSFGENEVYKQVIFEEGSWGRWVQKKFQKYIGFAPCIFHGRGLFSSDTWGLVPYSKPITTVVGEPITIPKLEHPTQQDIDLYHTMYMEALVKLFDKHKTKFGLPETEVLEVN

Work on `O=C(NCC1(O)CC1)c1ccc2c(-c3ccccc3Cl)nn(-c3ccc(F)cc3)c2c1` [Example 114, 3-(2-chlorophenyl)-1-(4-fluorophenyl)-N-[(1-hydroxycyclopropyl)methyl]-1H-indazole-6-carboxamide] yielded a pIC50 of 6.20.

`O=C(NC1CNCCS(=O)(=O)C1)c1ccc2c(-c3ccccc3Cl)nn(-c3ccc(F)cc3)c2c1` (racemic) [Example 102, 3-(2-chlorophenyl)-N-(1,1-dioxido-1,4-thiazepan-6-yl)-1-(4-fluorophenyl)-1H-indazole-6-carboxamide] showed a pIC50 of 6.75.

`CC1(NC(=O)c2ccc3c(-c4ccccc4Cl)nn(-c4nnc(C(F)(F)F)s4)c3c2)CCS(=O)(=O)C1` (racemic) [Example 182, 3-(2-chlorophenyl)-N-(3-methyl-1,1-dioxidotetrahydrothiophen-3-yl)-1-[5-(trifluoromethyl)-1,3,4-thiadiazol-2-yl]-1H-indazole-6-carboxamide] gave a pIC50 of 6.43.

With `COc1ccc(-c2nn(-c3ccc(F)cc3)c3cc(C(=O)NC4(C)CCS(=O)(=O)C4)ccc23)cn1` (single isomer, unassigned) [Example 155-A, 1-(4-fluorophenyl)-3-(6-methoxypyridin-3-yl)-N-(3-methyl-1,1-dioxidotetrahydrothiophen-3-yl)-1H-indazole-6-carboxamide] the pIC50 was 6.45.

`CC1(NC(=O)c2ccc3c(-c4cc(C#N)ccc4Cl)nn(-c4ccc(F)cc4)c3c2)CCS(=O)(=O)C1` (single isomer, unassigned) [Example 119-A, 3-(2-chloro-5-cyanophenyl)-1-(4-fluorophenyl)-N-(3-methyl-1,1-dioxidotetrahydrothiophen-3-yl)-1H-indazole-6-carboxamide] was tested, and the pIC50 was 8.08.
